According to patent publication US10053455B2, “Diazaspiroalkaneone-substituted oxazole derivatives as spleen tyrosine kinase inhibitors” (AB SCIENCE, priority 2014, dated 2018):
Like-named read-outs stand apart in the source and are kept apart here.

Tests used:
[1] = molecular target: Src (Homo sapiens (Human), UniProt P12931); assay: HTRF kinase assay, Src; format: biochemical; details: enzymatic determination
Protocol: Most of the kinases tested in this study were cloned, expressed and purified in the facilities of the inventors. They were expressed either as N-terminus hexahistidine-, hexahistidine-asparagine- or GST-tagged enzymes in a baculovirus or in a Colibacille expression system. Remaining enzymes (JAKs) were purchased from Millipore or Proqinase. For each enzyme, steady state kinetic parameters were determined and validated with known inhibitors.
The analysis of the effect of compounds on kinase activity was assessed with the HTRF® KinEASE assay (Cisbio International), an immuno-assay based on the quantification of the level of phosphorylation of a biotinylated peptide substrate using anti-phospho-specific antibody labeled with Europium (Eu^3+) cryptate. This assay comprises two steps: —an enzymatic step, during which the peptide substrate, the kinase, ATP, Mg^2+ and/or Mn^2+ are incubated with varying concentration of drug (from 0 to 10 μM); —a detection step, at the end of the reaction (stopped by addition of EDTA which chelates Mg^2+), the antibody anti-phospho peptide-Eu^3+ (emission 620 nm) and streptavidin XL-665 (emission 665 nm) are added to the reaction mix. […] Results are expressed in delta fluorescence (DF) unit defined as follow DF %=[(ratio−ratio blank)/(ratio blank)]*100, where ratio=(665 nm/620 nm)*10^4. […]

[2] = system: murine model of arthritis; assay: K/BxN serum mouse model of rheumatoid arthritis: ankle thickening and arthritis score; format: in vivo, C57Bl/6 mice
Protocol: (§1) K/B×N serum pools were prepared from arthritic mice at 8 weeks of age. The mice were pre-treated with SYK inhibitors by two per os administration for two days before induction of arthritis. Arthritis was induced in the C57Bl/6 mice (8 weeks of age) by intraperitoneal injection (7.5 μl serum per g weight) at days 0 and 2.
(§2) The treatment with SYK inhibitors was continued for 13 days. The control mice were injected with solvent before the induction of arthritis and during the course of the disease. The compounds were dissolved in a solution containing 10% of Tween 80 and 10% 1-2 propandiol. It was prepared before administration.
Ankle thickening measure, being defined as the difference in ankle thickness from the day 0, was measured using a precision calliper. Arthritis/clinical score was defined by sum of scores of each lim (0 no disease; 1 mild swelling of paw or of just of few digits; 2 clear joint inflammation; 3 severe joint inflammation) maximum score=12.
K/B×N was a murine model of spontaneous rheumatoid arthritis that mimics many of the clinical and histological features of human disease with synovitis predominantly in the distal small joints. Arthritis was induced by intraperitoneal injection of arthritis serum of K/B×N mice at days 0 and 2 as described in protocol assays above. Compound 001 was tested at 15 and 50 mg/kg/day b.i.d. and compared with Masitinib at 50 mg/kg/day b.i.d., an AB Science drug candidate for treating rheumatoid arthritis (Arthritis Res Ther., (2009), 11(3):R95). Ankle thickening and arthritis score were used to monitor the in vivo activity of the compounds.

[3] = system: Myeloperoxidase (MPO); assay: Myeloperoxidase activity in K/BxN arthritis model; format: in vivo, C57Bl/6 mice
Protocol: as §1, §2
MPO activity was determined following published protocol (American Journal of Pathology, (2000), 156 (6):2169-2177). Briefly, tissue samples were weighed and suspended in 50 mmol/L potassium phosphate buffer (pH 6.0) containing 5 mg/ml hexadecyltrimethylammonium bromide (Sigma Chemical Co.) at a ratio of 50 mg tissue to 1 ml of buffer. […] Using a microtiter plate scanner, 200 μl of the reaction mixture (containing 16.7 mg of o-dianisidine (Sigma Chemical Co.), […] of distilled H2O, […] of potassium-phosphate buffer, and 50 μl of 1% H2O2) was added to each well containing 7 μl of sample in a standard 96-well plate and three absorbance readings at 5 min intervals at 450 nm were recorded.

[4] = WST-1 cell survival/proliferation assay on rat cardiomyocytes; format: cell-based; details: Rat Cardiac Myocyte
Protocol: WST-1 cell survival/proliferation assay (Roche Diagnostic ref No 1644807) was performed on both primary human adult cardiomyocytes and rat neonatal cardiac myocytes.
Human cardiomyocytes were isolated from normal human ventricle tissue of the adult heart and were able to proliferate for a number of passage. Neonatal ventricular Clonetics® Rat Cardiac Myocytes (P1-3) retained their contractile property and were electrophysiologically active in culture. 1.10^4 primary rat cells or 2-2.5 10^4 adult human cells were plated per well of a 96 wells plates. The cells were allowed to adhere to the plates for 5 days before drug treatment. Treatment was initiated by addition of a 2× drug solution of ½ serial dilutions ranging from 0 to 10 μM. Cells were grown for 48 h at 37° C. and then incubated with 10 μl/well of WST-1 reagent for 4 h at 37° C. The amount of formazan dye formed was quantified by its absorbance at 450 nm using a scanning multiwell spectrophotometer (MultiSkan MS, Thermo-LabSystems, France). A blank well without cells was used as a background control for the spectrophotometer and all assays were performed in triplicate.

[5] = Early bioavailability determination (plasma PK); format: in vivo, Sprague Dawley rats; details: rat; for AUC: read-out: AUC24
Protocol: Early screen was conducted to estimate plasma concentrations of test compounds obtained after oral or intravenous administration to Sprague Dawley rats. DMSO was used as vehicle for oral and intravenous administration. In short, 4 male Sprague Dawley rats around 5 weeks old were used. Drugs were administered PO (10 mg/kg) or IV (2 mg/kg). Blood samples were collected at defined time schedule and analysed using LC-MS/MS determination for PK parameters calculations.

[6] = male, Sprague Dawley, plasma, IV, 2 mg/kg, mean
[7] = male, Sprague Dawley, plasma, PO, 10 mg/kg, mean

Src, sequence (P12931 whole entry, looked up, species assumed): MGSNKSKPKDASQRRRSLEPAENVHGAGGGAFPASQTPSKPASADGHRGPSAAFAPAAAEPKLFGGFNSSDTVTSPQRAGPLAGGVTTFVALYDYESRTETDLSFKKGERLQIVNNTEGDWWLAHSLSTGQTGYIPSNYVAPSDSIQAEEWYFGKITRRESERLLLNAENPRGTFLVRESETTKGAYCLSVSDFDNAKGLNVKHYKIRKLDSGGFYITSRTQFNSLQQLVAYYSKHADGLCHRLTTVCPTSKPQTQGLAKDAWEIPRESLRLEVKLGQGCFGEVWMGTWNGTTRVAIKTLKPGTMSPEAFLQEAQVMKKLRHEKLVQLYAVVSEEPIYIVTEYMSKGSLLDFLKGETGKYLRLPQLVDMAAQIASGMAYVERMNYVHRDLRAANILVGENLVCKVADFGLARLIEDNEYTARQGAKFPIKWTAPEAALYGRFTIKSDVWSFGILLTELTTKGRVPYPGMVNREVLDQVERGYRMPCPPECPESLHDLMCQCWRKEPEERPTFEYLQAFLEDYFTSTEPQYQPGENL

Question: What does the source list for `Cc1ccnc(Nc2cccc(-c3cnc(N4CCNC(=O)C45CC5)o3)c2)n1` [Compound 001, 4-{5-[3-(4-Methyl-pyrimidin-2-ylamino)-phenyl]-oxazol-2-yl}-4,7-diaza-spiro[2.5]octan-8-one]?
Answer: IC50 [1]: 2.6 µM; Ankle Thickening Score ([2]; 15 mg/kg b.i.d.): −17%; Arthritis Score ([2]; 15 mg/kg b.i.d.): −23%; Ankle Thickening Score ([2]; 50 mg/kg b.i.d.): −52% P < 0.005; Arthritis Score ([2]; 50 mg/kg b.i.d.): −68% P < 0.005; reduction of ankle thickening ([2]; 2×50 mg/kg/day): 52%; reduction of arthritis score ([2]; 2×50 mg/kg/day): 68%; MPO activity ([3]; KBxN + 15 mg/kg b.i.d.): 1.031 ± 0.24 U/ml; MPO activity ([3]; KBxN + 50 mg/kg b.i.d.): 0.348 ± 0.08 U/ml; IC50 at 48 h ([4]; neonatal ventricular rat cardiac myocytes (Clonetics, P1-3), 48 h, read-out: Drug-induced cytotoxicity IC50, Rat-CM): 10 µM; viability change vs untreated control at 48 h, 1 µM ([4]; rat neonatal cardiac myocytes, 1 μM): -2%; Cl ([5]; PO, 10 mg/kg, mean): 17 mL/min/kg; Vd ([5]; PO, 10 mg/kg, mean): 2.9 L/kg; Cmax [5, 6]: 869 ng/mL; Tmax [5, 6]: 0.083 h; clearance [5, 6]: 15 mL/min/kg; half-life [5, 6]: 0.6 h; AUC [5, 6]: 1060 ng·h/mL; Vd ([5]; male, Sprague Dawley, plasma, IV, 2 mg/kg, mean, read-out: Vd): 0.9 L/kg; bioavailability ([5]; male, Sprague Dawley, plasma, PO 10 mg/kg vs IV 2 mg/kg, read-out: F24 (absolute bioavailability)): 97.5%; Cmax [5, 7]: 122 ng/mL; Tmax [5, 7]: 3 h; half-life [5, 7]: 2.1 h; AUC [5, 7]: 1030 ng·h/mL
